According to patent US20250144179A1, “PEPTIDE HORMONE TO PREVENT OR TREAT VASOSPASM, BRAIN INJURY OR CEREBRAL EDEMA” (UNIVERSITY OF FLORIDA RESEARCH FOUNDATION, INCORPORATED, priority 2022, published 2025):

Key:
Format in all cases: in vivo, mouse
[1] = system: eNOS; test: Western blot of total eNOS and p-eNOS (Ser1179) in brain after SAH
Experimental: (§1) Synthetic adropin^34-76 peptide was supplied from Bachem (Bubendorf, Switzerland) and diluted in 0.1% BSA in saline. 0.1% BSA in saline was used as vehicle control for all experiments. Adropin (450 nmol/kg) or an equivalent volume of vehicle was delivered via intraperitoneal injection 15 minutes post-SAH. For experiments ending at 24 hours post-SAH, an identical dose of adropin/vehicle was given again 12 hours later. For experiments ending 7 days post-SAH, adropin/vehicle was given again on days 1, 3 & 5 post-SAH. In the aneurysm rupture model, adropin was given at a dose of 450 nmol/kg starting 3 days before aneurysm induction (elastase injection). Adropin was given every other day until sacrifice
SAH was modeled using the anterior circulation single autologous blood injection method^25,33 with minor adjustments. Mice were anesthetized with ketamine (100 mg/kg) and xylazine (10 mg/kg) before removing hair from scalp and cleaning with serial betadine—saline washes. The tail was also prepped from the base extending 1 cm distally. Mice were then fixed into a stereotaxic frame and body temperature maintained at 37° C. The scalp was incised along the sagittal suture from bregma to the nasal bone. The skin was reflected and a burr hole was drilled 5.0 mm rostral of bregma and 0.5 mm right laterally to avoid puncturing dural venous sinuses. […] 50 μL of blood was drawn into a Hamilton syringe (Hamilton, Reno, Nevada) and passed through the cranial burr hole at an angle of 30° caudally until contact with the skull base (approximately 7.2 mm). The syringe was left in place for 30 seconds to allow for tissue accommodation before blood was manually injected at a rate of 10 μL/minute. After blood injection was complete, the syringe was left in place for an additional 3 minutes and then retracted slowly at a rate of 10 mm/minute. Sham surgery was the identical procedure and timing including placement of the stereotactic needle but without blood injection. After the needle and syringe were removed, the burr hole was covered and skin flap was sutured with 5-0 ethilon suture.
At 24 hours or 7 days post-SAH, mice were deeply anesthetized and perfused with 10 mL of ice-cold PBS. Brains were harvested from the skull and placed into a cold brain matrix (Harvard Apparatus, Holliston, Massachusetts). The olfactory lobe was removed, and brains were cut in half along the mid-sagittal plane. The right hemisphere was cut again 2 mm caudally from the rostral edge and the pieces of tissue were snap frozen in liquid N2. Once all tissue samples were collected, brains were homogenized with a Dounce homogenizer and incubated in radioimmunoprecipitation assay (RIPA) buffer at 4° C. for 90 minutes with constant agitation. Samples were centrifuged, supernatant collected, and protein quantified via Bradford assay. Samples were then frozen at −20° C. or used immediately. 30 μg of total protein was separated electrophoretically through a 4-15% tris-glycine gel at 90V for 60 minutes and transferred onto nitrocellulose membranes with 0.45 μm pore size. Membranes were blocked with 5% skim milk in TBST (5% BSA for phospho-eNOS blots) for 1 hours at room temperature and then probed with specified primary antibodies (Table 1) diluted in 5% skim milk (5% BSA for phospho-eNOS) overnight at 4° C. with constant agitation. […]

[2] = system: wild-type mice, SAH model; test: Corner-turn preference test (sensorimotor deficits) after SAH
Experimental: as §1, with “Adropin (450 nmol/kg) or an equivalent volume of vehicle was delivered via intraperitoneal injection 15 minutes post-SAH.” left out
SAH was modeled using the anterior circulation single autologous blood injection method^25,33 with minor adjustments. Mice were anesthetized with ketamine (100 mg/kg) and xylazine (10 mg/kg) before removing hair from scalp and cleaning with serial betadine—saline washes. The tail was also prepped from the base extending 1 cm distally. Mice were then fixed into a stereotaxic frame and body temperature maintained at 37° C. The scalp was incised along the sagittal suture from bregma to the nasal bone. The skin was reflected and a burr hole was drilled 5.0 mm rostral of bregma and 0.5 mm right laterally to avoid puncturing dural venous sinuses. […]

[3] = system: eNOS^−/− mice, SAH model; test: MCA diameter (vasospasm) after SAH in eNOS knockout mice; conditions: one week post-SAH
Source text: All animal experiments were approved by IACUC (Institutional Animal Care and Use Committee) and performed in accordance with ARRIVE (Animal Research: Reporting of In Vivo Experiments) guidelines. All animals were 12-15-week-old females and were housed in pathogen-free housing with ad libitum food and water and 12-h light/dark cycling. Wild-type C57B1/6 mice were received from Charles River Labs (Wilmington, Mass.) and eNOS knockout mice were obtained from The Jackson Laboratory (Bar Harbor, Maine). eNOS knockout breeding pairs were genotyped prior to breeding and F1 progeny used for all experiments. The following primers were used for genotyping: eNOS knockout (Nos3^−/−): F-5′-[…]-3′, R-5′-[…]-3′. All animals underwent twice daily monitoring from institutional animal care services staff and/or investigators. […]
(§2) Middle cerebral artery diameter were measured as previously reported.^36,37 One week post-SAH, mice were deeply anesthetized with ketamine and xylazine before being serially perfused through the left ventricle with PBS (5 mL), 4% PFA (15 mL), and 20% India ink dissolved in 5% gelatin. […] Brains were imaged and analyzed by an observer blinded to group assignment. The narrowest diameter within the first 2000 μm of the middle cerebral artery (MCA) after the terminal interior carotid artery bifurcation (M1 segment) was measured to assess vasospasm. […]

[4] = system: wild-type mice, SAH model; test: Delayed cerebral vessel casting, MCA diameter (vasospasm) after SAH
Experimental: as §1, with “Adropin (450 nmol/kg) or an equivalent volume of vehicle was delivered via intraperitoneal injection 15 minutes post-SAH.” left out
SAH was modeled using the anterior circulation single autologous blood injection method^25,33 with minor adjustments. Mice were anesthetized with ketamine (100 mg/kg) and xylazine (10 mg/kg) before removing hair from scalp and cleaning with serial betadine—saline washes. […]
as §2

[5] = treatment initiated at 24 hours post-SAH

adropin (CHSRSADVDSLSESSPNSSPGPCPEKAPPPQKPSHEGSYLLQP) [Synthetic adropin^34-76 peptide from Bachem]
phospho-eNOS levels ([1]; 7 day post-SAH): adropin treatment increase phospho-eNOS levels | total eNOS ([1]; 7 day post-SAH): slightly increased in both SAH groups; however, neither reached statistical significance | Phospho-eNOS/eNOS ratio ([1]; 7 day post-SAH, p=0.08 vs SAH+vehicle, p=0.08 vs sham+vehicle): trended higher with adropin treatment | p-eNOS/total eNOS ratio ([1]; one day post-SAH): no change in p-eNOS/total eNOS ratios between any groups | eNOS phosphorylation (Ser1179) ([1]; one day post-SAH, vs SAH+vehicle): increased eNOS phosphorylation one day post-SAH | sensorimotor deficits [2, 5]: ability of adropin treatment to improve sensorimotor deficits was maintained | corner turn preference (sensorimotor deficit) ([2]; up to one week post-SAH, treatment started 15 minutes post-SAH): reducing this sensorimotor deficit and normalizing corner turn preference | vasospasm (MCA diameter) [3]: adropin did not prevent vasospasm | ipsilateral MCA diameter (cerebral vasospasm) ([4]; seven days post-SAH, treatment started 15 minutes post-SAH): adropin-treatment reversed this phenotype | cerebral vasospasm (MCA diameter) [4, 5]: strong trend for reduced cerebral vasospasm
